In one experiment the target is T1, Jak3 enzyme (aa 811-1103) (Homo sapiens, UniProt P52333).
T1 construct: Jak3 enzyme (aa 811-1103); expressed in SF9 cells as a GST fusion; GST; made in house; host or cells: SF9 insect cells
T1 sequence (P52333 811-1103): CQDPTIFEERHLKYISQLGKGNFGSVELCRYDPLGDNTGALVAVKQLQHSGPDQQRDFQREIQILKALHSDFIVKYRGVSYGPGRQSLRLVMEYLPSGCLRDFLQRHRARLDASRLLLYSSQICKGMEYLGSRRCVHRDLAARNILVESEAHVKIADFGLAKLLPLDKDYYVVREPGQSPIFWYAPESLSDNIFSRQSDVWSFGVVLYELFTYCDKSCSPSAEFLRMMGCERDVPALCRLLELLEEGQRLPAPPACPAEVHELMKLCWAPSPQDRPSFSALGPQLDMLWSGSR
The experiment is described as follows: In vitro Jak3 kinase activity measured by time-resolved fluorescence resonance energy transfer (trFRET). It counts as biochemical. The note with it: ATP 0.001 mM. On the procedure:
In Vitro Jak3 Kinase Activity Measured by Time-Resolved Fluorescence Resonance Energy Transfer (trFRET)
Varying concentrations of inhibitor were added to an assay well containing: Jak3 enzyme (aa 811-1103; expressed in SF9 cells as a GST fusion and purified by glutathione affinity chromatography; 3 nM), peptide substrate (biotin-TYR2, Sequence: Biotin-(Ahx)-AEEEYFFLFA-amide; 2 μM), MOPSO pH 6.5 (50 mM), MgCl2 (10 mM), MnCl2 (2 mM), DTT (2.5 mM), BSA (0.01% w/v), Na3VO4 (0.1 mM) and ATP (0.001 mM). After about 60 min incubation at rt, the reaction was quenched by addition of EDTA (final concentration: 100 mM) and developed by addition of revelation reagents (final approximate concentrations: 30 mM HEPES pH 7.0, 0.06% BSA, 0.006% Tween-20, 0.24 M KF, 80 ng/mL PT66K (europium labeled anti-phosphotyrosine antibody cat #61T66KLB Cisbio, Bedford, Mass.) and 0.8 μg/mL SAXL (Phycolink streptavidin-allophycocyanin acceptor, cat #PJ52S, Prozyme, San Leandro, Calif.). The developed reaction was incubated in the dark either at about 4° C., for about 14 h or for about 60 min at rt, then read via a time-resolved fluorescence detector (Rubystar, BMG) using a 337 nm laser for excitation and emission wavelength of 665 nm. Within the linear range of the assay, the observed signal at 665 nm is directly related to phosphorylated product and used to calculate the IC50 values.
In turn, `CC[C@@H]1CN(C(=O)CCCC#N)C[C@@H]1c1cnc2cnc3[nH]ccc3n12` [Example #12] yielded an IC50 of 1 to 10 µM.
On the same count and under the same terms, in the case of `C[C@@H]1C[C@@H](N2CCC(C#N)CC2)C[C@@H]1c1cnc2cnc3[nH]ccc3n12` [Example #8, 1-((1R,3S,4R)-3-(3H-imidazo[1,2-a]pyrrolo[2,3-e]pyrazin-8-yl)-4-methylcyclopentyl)piperidine-4-carbonitrile] it was above 10 µM.
On the same count and under the same terms, as for `C[C@@H]1C[C@H](CCC#N)C[C@@H]1c1nnc2cnc3[nH]ccc3n12` [Example #9, 3-((1S,3R,4S)-3-methyl-4-(6H-pyrrolo[2,3-e][1,2,4]triazolo[4,3-a]pyrazin-1-yl)cyclopentyl)propanenitrile], the figure is above 10 µM; as for `C[C@@H]1CN(C(=O)CC2CC2)C[C@@H]1c1cnc2cnc3[nH]ccc3n12` [Example #21, 1-((3R,4S)-3-(3H-imidazo[1,2-a]pyrrolo[2,3-e]pyrazin-8-yl)-4-methylpyrrolidin-1-yl)-2-cyclopropylethanone], 1 to 10 µM; as for “1-((1R,3S,4R)-3-(3H-imidazo[1,2-a]pyrrolo[2,3-e]pyrazin-8-yl)-4-methylcyclopentyl)methyl)azetidine-3-carbonitrile and 1-(((1S,3S,4R)-3-(3H-imidazo[1,2-a]pyrrolo[2,3-e]pyrazin-8-yl)-4-methylcyclopentyl)methyl)azetidine-3-carbonitrile [Example #7]”, above 10 µM.
Take `CC[C@@H]1CN(C(=O)NC2CCC2)C[C@@H]1c1cnc2cnc3[nH]ccc3n12` [Example #17, (3S,4R)—N-cyclobutyl-3-ethyl-4-(3H-imidazo[1,2-a]pyrrolo[2,3-e]pyrazin-8-yl)pyrrolidine-1-carboxamide]: the IC50 is above 10 µM.
On the same count and under the same terms, in the case of `C[C@@H]1CN(C(=O)N2CCOCC2)C[C@@H]1c1cnc2cnc3[nH]ccc3n12` [Example #20, ((3R,4S)-3-(3H-imidazo[1,2-a]pyrrolo[2,3-e]pyrazin-8-yl)-4-methylpyrrolidin-1-yl)(morpholino)methanone] it was above 10 µM.

The experiment is the same for the next values; noted with them: ATP 0.001 mM, Table B.
`CC[C@@H]1C[C@H](NC(=O)CNC(=O)c2ccco2)C[C@@H]1c1nnc2cnc3[nH]ccc3n12` [compound 48] displayed a half-maximal inhibitory concentration (IC50) of 1 to 10 µM.
`CC[C@@H]1C[C@H](NC(=O)CCC2CCC(=O)N2)C[C@@H]1c1nnc2cnc3[nH]ccc3n12` (stereo partly drawn) [compound 80, N-((1S,3R,4S)-3-ethyl-4-(6H-pyrrolo[2,3-e][1,2,4]triazolo[4,3-a]pyrazin-1-yl)cyclopentyl)-3-(5-oxopyrrolidin-2-yl)propanamide] yielded an IC50 of 1 to 10 µM.
Same read-out and setting: in the case of `CC[C@@H]1C[C@H](NC(=O)CCC2CCCCC2=O)C[C@@H]1c1nnc2cnc3[nH]ccc3n12` (stereo partly drawn) [compound 70, N-((1S,3R,4S)-3-ethyl-4-(6H-pyrrolo[2,3-e][1,2,4]triazolo[4,3-a]pyrazin-1-yl)cyclopentyl)-3-(2-oxocyclohexyl)propanamide] it was above 10 µM; in that of `CC[C@@H]1C[C@H](NC(=O)c2cnco2)C[C@@H]1c1nnc2cnc3[nH]ccc3n12` [compound 82, N-((1S,3R,4S)-3-ethyl-4-(6H-pyrrolo[2,3-e][1,2,4]triazolo[4,3-a]pyrazin-1-yl)cyclopentyl)oxazole-5-carboxamide], 1 to 10 µM.
Still for that read-out and setting: in the case of `CC[C@@H]1C[C@H](NC(=O)c2ccoc2)C[C@@H]1c1nnc2cnc3[nH]ccc3n12` [compound 56, N-((1S,3R,4S)-3-ethyl-4-(6H-pyrrolo[2,3-e][1,2,4]triazolo[4,3-a]pyrazin-1-yl)cyclopentyl)furan-3-carboxamide] it was 1 to 10 µM; in that of `CCc1cc(C(=O)N[C@H]2C[C@@H](CC)[C@@H](c3nnc4cnc5[nH]ccc5n34)C2)on1` [compound 81, 3-ethyl-N-((1S,3R,4S)-3-ethyl-4-(6H-pyrrolo[2,3-e][1,2,4]triazolo[4,3-a]pyrazin-1-yl)cyclopentyl)isoxazole-5-carboxamide], 1 to 10 µM; in that of `CC[C@@H]1C[C@H](NC(=O)c2cc(-c3ccco3)on2)C[C@@H]1c1nnc2cnc3[nH]ccc3n12` [compound 73, N-((1S,3R,4S)-3-ethyl-4-(6H-pyrrolo[2,3-e][1,2,4]triazolo[4,3-a]pyrazin-1-yl)cyclopentyl)-5-(furan-2-yl)isoxazole-3-carboxamide], below 1 µM.
On the same count and under the same terms, in the case of `CC[C@@H]1C[C@H](NC(=O)CCC2(C)CC2)C[C@@H]1c1nnc2cnc3[nH]ccc3n12` [compound 44, N-((1S,3R,4S)-3-ethyl-4-(6H-pyrrolo[2,3-e][1,2,4]triazolo[4,3-a]pyrazin-1-yl)cyclopentyl)-3-(1-methylcyclopropyl)propanamide] it was 1 to 10 µM; in that of `CC[C@@H]1C[C@H](NC(=O)Cc2coc3ccccc23)C[C@@H]1c1nnc2cnc3[nH]ccc3n12` [compound 41, 2-(benzofuran-3-yl)-N-((1S,3R,4S)-3-ethyl-4-(6H-pyrrolo[2,3-e][1,2,4]triazolo[4,3-a]pyrazin-1-yl)cyclopentyl)acetamide], 1 to 10 µM.
For the compound `CC[C@@H]1C[C@H](NC(=O)CCC2CCC2)C[C@@H]1c1nnc2cnc3[nH]ccc3n12` [compound 67, 3-cyclobutyl-N-((1S,3R,4S)-3-ethyl-4-(6H-pyrrolo[2,3-e][1,2,4]triazolo[4,3-a]pyrazin-1-yl)cyclopentyl)propanamide], the half-inhibitory concentration (IC50) was 1 to 10 µM.
Same read-out and setting: as for `CC[C@@H]1C[C@H](NC(=O)c2ccco2)C[C@@H]1c1nnc2cnc3[nH]ccc3n12` [compound 78, N-((1S,3R,4S)-3-ethyl-4-(6H-pyrrolo[2,3-e][1,2,4]triazolo[4,3-a]pyrazin-1-yl)cyclopentyl)furan-2-carboxamide], the figure is 1 to 10 µM.
Same read-out and setting: in the case of `CC[C@@H]1C[C@H](NC(=O)c2occc2C)C[C@@H]1c1nnc2cnc3[nH]ccc3n12` [compound 79, N-((1S,3R,4S)-3-ethyl-4-(6H-pyrrolo[2,3-e][1,2,4]triazolo[4,3-a]pyrazin-1-yl)cyclopentyl)-3-methylfuran-2-carboxamide] it was 1 to 10 µM; in that of `CC[C@@H]1C[C@H](NC(=O)c2conc2C)C[C@@H]1c1nnc2cnc3[nH]ccc3n12` [compound 34, N-((1S,3R,4S)-3-ethyl-4-(6H-pyrrolo[2,3-e][1,2,4]triazolo[4,3-a]pyrazin-1-yl)cyclopentyl)-3-methylisoxazole-4-carboxamide], 1 to 10 µM; in that of `CC[C@@H]1C[C@H](NC(=O)c2ccoc2C)C[C@@H]1c1nnc2cnc3[nH]ccc3n12` [compound 52, N-((1S,3R,4S)-3-ethyl-4-(6H-pyrrolo[2,3-e][1,2,4]triazolo[4,3-a]pyrazin-1-yl)cyclopentyl)-2-methylfuran-3-carboxamide], 1 to 10 µM.
On the same count and under the same terms, as for `CC[C@@H]1C[C@H](NC(=O)CCc2ccco2)C[C@@H]1c1nnc2cnc3[nH]ccc3n12` [compound 53, N-((1S,3R,4S)-3-ethyl-4-(6H-pyrrolo[2,3-e][1,2,4]triazolo[4,3-a]pyrazin-1-yl)cyclopentyl)-3-(furan-2-yl)propanamide], the figure is below 1 µM; as for `CCc1cc(C(=O)N[C@H]2C[C@@H](CC)[C@@H](c3nnc4cnc5[nH]ccc5n34)C2)no1` [compound 76, 5-ethyl-N-((1S,3R,4S)-3-ethyl-4-(6H-pyrrolo[2,3-e][1,2,4]triazolo[4,3-a]pyrazin-1-yl)cyclopentyl)isoxazole-3-carboxamide], 1 to 10 µM.
In the case of `CC[C@@H]1C[C@H](NC(=O)CNC(=O)c2ccc(C)o2)C[C@@H]1c1nnc2cnc3[nH]ccc3n12` [compound 30, N-(2-((1S,3R,4S)-3-ethyl-4-(6H-pyrrolo[2,3-e][1,2,4]triazolo[4,3-a]pyrazin-1-yl)cyclopentylamino)-2-oxoethyl)-5-methylfuran-2-carboxamide], the half-maximal inhibitory concentration (IC50) was 1 to 10 µM.
The same measure, in the same setting: in the case of `CC[C@@H]1C[C@H](NC(=O)c2cc(C3CC3)on2)C[C@@H]1c1nnc2cnc3[nH]ccc3n12` [compound 59, 5-cyclopropyl-N-((1S,3R,4S)-3-ethyl-4-(6H-pyrrolo[2,3-e][1,2,4]triazolo[4,3-a]pyrazin-1-yl)cyclopentyl)isoxazole-3-carboxamide] it was 1 to 10 µM; in that of `CC[C@@H]1C[C@H](NC(=O)CCc2cc(OC)no2)C[C@@H]1c1nnc2cnc3[nH]ccc3n12` [compound 36, N-((1S,3R,4S)-3-ethyl-4-(6H-pyrrolo[2,3-e][1,2,4]triazolo[4,3-a]pyrazin-1-yl)cyclopentyl)-3-(3-methoxyisoxazol-5-yl)propanamide], 1 to 10 µM.
The same measure, in the same setting: in the case of `CC[C@@H]1C[C@H](NC(=O)CCC2CCCCC2)C[C@@H]1c1nnc2cnc3[nH]ccc3n12` [compound 77, 3-cyclohexyl-N-((1S,3R,4S)-3-ethyl-4-(6H-pyrrolo[2,3-e][1,2,4]triazolo[4,3-a]pyrazin-1-yl)cyclopentyl)propanamide] it was 1 to 10 µM; in that of `CCc1ocnc1C(=O)N[C@H]1C[C@@H](CC)[C@@H](c2nnc3cnc4[nH]ccc4n23)C1` [compound 74, 5-ethyl-N-((1S,3R,4S)-3-ethyl-4-(6H-pyrrolo[2,3-e][1,2,4]triazolo[4,3-a]pyrazin-1-yl)cyclopentyl)oxazole-4-carboxamide], 1 to 10 µM.
